Results reported in PubChem BioAssay AID248 (DTP/NCI, 2004).
“And” between values parts separate entries of the source, which are not always exact repeats. Equal values may be shown once. Toxic doses and inconclusive results are not listed.

Test system: L1210 leukemia ip in BDF1 mice, survival T/C
Experiment: NCI In Vivo Anticancer Drug Screen. Data for tumor model L1210 Leukemia (intraperitoneal) in B6D2F1 (BDF1) mice
Conditions: endpoint: mean survival time, higher = longer survival
Method in brief: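 Transplantable tumor model; survival measured in treated vs vehicle control mice. Value = treated/control.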

[1] = dose: 100.0 mg/kg/injection, schedule: Q01DX001 (ip), vehicle: carboxymethylcellulose (CMC)
[2] = dose: 200.0 mg/kg/injection, schedule: Q01DX001 (ip), vehicle: carboxymethylcellulose (CMC)
[3] = dose: 400.0 mg/kg/injection, schedule: Q01DX001 (ip), vehicle: carboxymethylcellulose (CMC)
[4] = dose: 100.0 mg/kg/injection, schedule: Q01DX009 (ip), vehicle: saline with Tween-80
[5] = dose: 100.0 mg/kg/injection, schedule: Q04DX003 (ip), vehicle: saline with Tween-80
[6] = dose: 200.0 mg/kg/injection, schedule: Q01DX009 (ip), vehicle: saline with Tween-80
[7] = dose: 200.0 mg/kg/injection, schedule: Q04DX003 (ip), vehicle: saline with Tween-80
[8] = dose: 400.0 mg/kg/injection, schedule: Q01DX009 (ip), vehicle: saline with Tween-80
[9] = dose: 400.0 mg/kg/injection, schedule: Q04DX003 (ip), vehicle: saline with Tween-80
[10] = dose: 100.0 mg/kg/injection, schedule: Q04DX003 (ip), vehicle: Klucel (hydroxypropylcellulose) (HPC)
[11] = dose: 200.0 mg/kg/injection, schedule: Q04DX003 (ip), vehicle: Klucel (hydroxypropylcellulose) (HPC)
[12] = dose: 400.0 mg/kg/injection, schedule: Q04DX003 (ip), vehicle: Klucel (hydroxypropylcellulose) (HPC)
[13] = dose: 25.0 mg/kg/injection, schedule: Q04DX003 (ip), vehicle: saline with Tween-80
[14] = dose: 100.0 mg/kg/injection, schedule: Q01DX009 (ip), vehicle: Klucel (hydroxypropylcellulose) (HPC)
[15] = dose: 200.0 mg/kg/injection, schedule: Q01DX009 (ip), vehicle: Klucel (hydroxypropylcellulose) (HPC)
[16] = dose: 400.0 mg/kg/injection, schedule: Q01DX009 (ip), vehicle: Klucel (hydroxypropylcellulose) (HPC)
[17] = dose: 50.0 mg/kg/injection, schedule: Q01DX001 (ip), vehicle: carboxymethylcellulose (CMC)
[18] = dose: 100.0 mg/kg/injection, schedule: Q01DX001 (ip), vehicle: saline
[19] = dose: 200.0 mg/kg/injection, schedule: Q01DX001 (ip), vehicle: saline
[20] = dose: 50.0 mg/kg/injection, schedule: Q01DX001 (ip), vehicle: Klucel (hydroxypropylcellulose) (HPC)
[21] = dose: 100.0 mg/kg/injection, schedule: Q01DX001 (ip), vehicle: Klucel (hydroxypropylcellulose) (HPC)
[22] = dose: 100.0 mg/kg/injection, schedule: Q04DX002 (ip), vehicle: saline with Tween-80
[23] = dose: 200.0 mg/kg/injection, schedule: Q01DX001 (ip), vehicle: Klucel (hydroxypropylcellulose) (HPC)
[24] = dose: 200.0 mg/kg/injection, schedule: Q04DX002 (ip), vehicle: saline with Tween-80

With `O=[N+]([O-])c1cc(Cl)cc2c1-c1ccc(Cl)cc1/C2=N\O` the T/C [1] was 103 % of control, the T/C [2] was 103 % of control and the T/C [3] was 103 % of control.

In the case of `O=C1NC(=O)N(Cc2ccccc2)C(=O)C1Cc1ccccc1` (stereo not given), the T/C [1] was 97 % of control, the T/C [2] was 95 % of control and the T/C [3] was 103 % of control.

`O=C(O)c1cccc2c1C(=O)c1c(Cl)cccc1C2=O` was tested, and the T/C (dose: 100.0 mg/kg/injection, schedule: Q04DX002 (ip), vehicle: Klucel (hydroxypropylcellulose) (HPC)) was 99 % of control, the T/C (dose: 200.0 mg/kg/injection, schedule: Q04DX002 (ip), vehicle: Klucel (hydroxypropylcellulose) (HPC)) was 99 % of control and the T/C (dose: 400.0 mg/kg/injection, schedule: Q04DX002 (ip), vehicle: Klucel (hydroxypropylcellulose) (HPC)) was 99 % of control.

In the case of `COc1ccccc1NC(=O)Nc1cccc(C(C)=O)c1`, the T/C [4] was 93 % of control, the T/C [5] was 97 % of control and the T/C [6] was 90 % of control. For the same compound, the T/C [7] was 100 % of control, the T/C [8] was 100 % of control and the T/C [9] was 96 % of control.

With `c1ccc(N=C2C3CCN(CC3)C2C(c2ccccc2)c2ccccc2)cc1` (stereo not given) the T/C [10] was 97 % of control, the T/C [11] was 94 % of control and the T/C [12] was 95 % of control.

With `C[N+](C)(C)c1ncncn1` the T/C (dose: 12.0 mg/kg/injection, schedule: Q04DX003 (ip), vehicle: saline) was 98 % of control, the T/C (dose: 25.0 mg/kg/injection, schedule: Q04DX003 (ip), vehicle: saline) was 98 % of control and the T/C (dose: 50.0 mg/kg/injection, schedule: Q04DX003 (ip), vehicle: saline) was 104 % of control.

`C1COC(NC2CC3CCC2C3)=N1` (stereo not given) was tested, and the T/C (dose: 6.25 mg/kg/injection, schedule: Q01DX009 (ip), vehicle: saline with Tween-80) was 94 % of control, the T/C (dose: 6.25 mg/kg/injection, schedule: Q04DX003 (ip), vehicle: saline with Tween-80) was 94 % of control and the T/C (dose: 12.5 mg/kg/injection, schedule: Q01DX009 (ip), vehicle: saline with Tween-80) was 104 % of control. For the same compound, the T/C (dose: 12.5 mg/kg/injection, schedule: Q04DX003 (ip), vehicle: saline with Tween-80) was 91 % of control, the T/C (dose: 25.0 mg/kg/injection, schedule: Q01DX009 (ip), vehicle: saline with Tween-80) was 100 % of control and the T/C [13] was 97 % of control.

`CCCCC(=O)N/N=C/c1cc2c(cc1[N+](=O)[O-])OCO2` (tested in a mixture with another compound) was tested, and the T/C [1] was 91 % of control, the T/C [2] was 91 % of control and the T/C [3] was 91 % of control.

In the case of `C1=C[N]2c3c4c(ccc3=C1)=CC=C[N]4[Ga]2[c]1ccccc1`, the T/C [13] was 88 % of control, the T/C (dose: 50.0 mg/kg/injection, schedule: Q04DX003 (ip), vehicle: saline with Tween-80) was 97 % of control and the T/C [5] was 101 % of control.

In the case of `O=c1oc(-c2cccc(Cl)c2)nc2cc(Cl)ccc12`, the T/C [14] was 104 % of control, the T/C [15] was 116 % of control and the T/C [16] was 115 % of control.

With `CC1=C(c2ccccc2)C(O)(c2ccccc2)C(C)C1=O` (stereo not given) the T/C (dose: 50.0 mg/kg/injection, schedule: Q01DX009 (ip), vehicle: Klucel (hydroxypropylcellulose) (HPC)) was 101 % of control, the T/C [14] was 93 % of control and the T/C [15] was 95 % of control.

With `O=C1NC(=O)C(Cc2ccccc2)(Cc2ccccc2)C(=O)N1` the T/C [1] was 103 % of control, the T/C [2] was 95 % of control and the T/C [3] was 95 % of control.

For `CN=C(Nc1ccc(N(C)C)cc1)SC`, the T/C (dose: 75.0 mg/kg/injection, schedule: Q01DX001 (ip), vehicle: other) was 105 % of control and the T/C (dose: 150.0 mg/kg/injection, schedule: Q01DX001 (ip), vehicle: other) was 103 % of control.

In the case of `NC(=O)NNC(N)=O`, the T/C (dose: 50.0 mg/kg/injection, schedule: Q01DX009 (ip), vehicle: saline) was 91 % of control, the T/C (dose: 100.0 mg/kg/injection, schedule: Q01DX009 (ip), vehicle: saline) was 98 % of control and the T/C (dose: 100.0 mg/kg/injection, schedule: Q04DX003 (ip), vehicle: saline) was 102 % of control. The T/C (dose: 200.0 mg/kg/injection, schedule: Q04DX003 (ip), vehicle: saline) was 101 % of control.

In the case of `O=C(c1ccccc1)N1CC2CC3OC3c3cccc1c32` (stereo not given), the T/C [5] was 88 % of control and the T/C [7] was 92 % of control.

`COc1ccc(NC(=O)c2cccc([N+](=O)[O-])c2)cc1` was tested, and the T/C [14] was 96 % of control, the T/C [15] was 93 % of control and the T/C [16] was 96 % of control.

In the case of `COc1cc(N(CCCl)CCCl)c(OC)cc1/C=N\Nc1nnc(C)n1N`, the T/C (dose: 2.5 mg/kg/injection, schedule: Q01DX015 (ip), vehicle: carboxymethylcellulose (CMC)) was 115 % of control, the T/C (dose: 5.0 mg/kg/injection, schedule: Q01DX015 (ip), vehicle: carboxymethylcellulose (CMC)) was 121 % of control and the T/C (dose: 10.0 mg/kg/injection, schedule: Q01DX015 (ip), vehicle: carboxymethylcellulose (CMC)) was 155 % of control. The T/C (dose: 30.0 mg/kg/injection, schedule: Q01DX015 (ip), vehicle: carboxymethylcellulose (CMC)) was 103 % of control, the T/C (dose: 44.0 mg/kg/injection, schedule: Q01DX001 (ip), vehicle: carboxymethylcellulose (CMC)) was 103 % of control and the T/C [17] was 120 % of control. The T/C (dose: 67.0 mg/kg/injection, schedule: Q01DX001 (ip), vehicle: carboxymethylcellulose (CMC)) was 115 % of control, the T/C [1] was 161 % of control and the T/C [3] was 97 % of control.

For `Cc1nc(C)c(C(=O)N/N=C/c2ccc(N(CCCl)CCCl)cc2)s1`, the T/C [17] was 94 % of control, the T/C [1] was 94 % of control and the T/C [2] was 97 % of control. The T/C [3] was 94 % of control.

With `CCOC=Nc1ccc(-n2cnc3c(Cl)ncnc32)cc1C` the T/C [1] was 91 % of control and the T/C [3] was 98 % of control.

`N#CCCO` was tested, and the T/C (dose: 25.0 mg/kg/injection, schedule: Q04DX002 (ip), vehicle: saline) was 98 % of control, the T/C (dose: 50.0 mg/kg/injection, schedule: Q04DX002 (ip), vehicle: saline) was 101 % of control and the T/C (dose: 100.0 mg/kg/injection, schedule: Q04DX002 (ip), vehicle: saline) was 110 % of control and 121 % of control. For the same compound, the T/C (dose: 200.0 mg/kg/injection, schedule: Q04DX002 (ip), vehicle: saline) was 96 % of control and the T/C (dose: 400.0 mg/kg/injection, schedule: Q04DX002 (ip), vehicle: saline) was 108 % of control.

With `CCCCCCCCCCCCC[As](=O)(O)CCCCCCCCCCCCC` the T/C (dose: 50.0 mg/kg/injection, schedule: Q01DX001 (ip), vehicle: saline) was 95 % of control, the T/C [18] was 103 % of control and the T/C [19] was 101 % of control. The T/C (dose: 400.0 mg/kg/injection, schedule: Q01DX001 (ip), vehicle: saline) was 91 % of control.

`CCOC(=O)c1cc2ccccc2[nH]1` was tested, and the T/C [20] was 93 % of control, the T/C [21] was 98 % of control and the T/C [22] was 97 % of control. For the same compound, the T/C [23] was 93 % of control, the T/C [24] was 87 % of control and the T/C (dose: 400.0 mg/kg/injection, schedule: Q04DX002 (ip), vehicle: saline with Tween-80) was 97 % of control.

For `O=C(Nc1[nH]nc2nccnc12)C(F)(F)F`, the T/C [4] was 97 % of control, the T/C [5] was 105 % of control and the T/C [6] was 92 % of control. The T/C [7] was 97 % of control, the T/C [8] was 103 % of control and the T/C [9] was 100 % of control.

For `CCN(CC)C(/C=C/c1ccccc1)=N\S(=O)(=O)c1ccccc1`, the T/C [20] was 102 % of control, the T/C [21] was 105 % of control and the T/C [23] was 104 % of control.

`CC(=O)Nc1ccc(S(=O)(=O)c2ccc(N)cc2)cc1` was tested, and the T/C (dose: 12.5 mg/kg/injection, schedule: Q04DX002 (ip), vehicle: saline with Tween-80) was 105 % of control, the T/C (dose: 25.0 mg/kg/injection, schedule: Q04DX002 (ip), vehicle: saline with Tween-80) was 109 % of control and 90 % of control and the T/C (dose: 50.0 mg/kg/injection, schedule: Q04DX002 (ip), vehicle: saline with Tween-80) was 97 % of control. For the same compound, the T/C [22] was 97 % of control and 102 % of control and the T/C [24] was 109 % of control.

For `CC(=O)CC(=O)Nc1ccc(Cl)cc1Cl`, the T/C [14] was 100 % of control, the T/C [10] was 98 % of control and the T/C [15] was 102 % of control. For the same compound, the T/C [11] was 91 % of control, the T/C [16] was 98 % of control and the T/C [12] was 93 % of control.

In the case of `CC1(C)N=C(N)N=C(N)N1c1cccc(CO)c1`, the T/C [18] was 96 % of control and the T/C [19] was 105 % of control.
